Where “and” joins values, the source holds several entries; their conditions need not be identical. Equal entries are not always repeated. Toxic doses and inconclusive results are not listed. No stated cut-off is given here; in the data, active means T/C of 150% or more; inactive means T/C below 125%. Square brackets hold non-standard residues; d marks the D form. Peptide text beside a SMILES is read from it. ξ: configuration not given here. ξD = NC(CC(=O)O)C(=O)O
System: L1210 leukemia ip in BDF1 mice, survival T/C
Assay: NCI In Vivo Anticancer Drug Screen. Data for tumor model L1210 Leukemia (intraperitoneal) in B6D2F1 (BDF1) mice
Conditions: endpoint: mean survival time, higher = longer survival
How it was run: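 Transplantable tumor model; survival measured in treated vs vehicle control mice. Value = treated/control.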

[1] = dose: 100.0 mg/kg/injection, schedule: Q04DX002 (ip), vehicle: Klucel (hydroxypropylcellulose) (HPC)
[2] = dose: 200.0 mg/kg/injection, schedule: Q04DX002 (ip), vehicle: Klucel (hydroxypropylcellulose) (HPC)
[3] = dose: 400.0 mg/kg/injection, schedule: Q04DX002 (ip), vehicle: Klucel (hydroxypropylcellulose) (HPC)
[4] = dose: 400.0 mg/kg/injection, schedule: Q01DX001 (ip), vehicle: carboxymethylcellulose (CMC)
[5] = dose: 100.0 mg/kg/injection, schedule: Q04DX003 (ip), vehicle: Klucel (hydroxypropylcellulose) (HPC)
[6] = dose: 200.0 mg/kg/injection, schedule: Q04DX003 (ip), vehicle: Klucel (hydroxypropylcellulose) (HPC)
[7] = dose: 50.0 mg/kg/injection, schedule: Q01DX009 (ip), vehicle: saline with Tween-80
[8] = dose: 100.0 mg/kg/injection, schedule: Q01DX009 (ip), vehicle: saline with Tween-80
[9] = dose: 100.0 mg/kg/injection, schedule: Q01DX001 (ip), vehicle: saline
[10] = dose: 200.0 mg/kg/injection, schedule: Q01DX001 (ip), vehicle: saline
[11] = dose: 400.0 mg/kg/injection, schedule: Q01DX001 (ip), vehicle: saline
[12] = dose: 50.0 mg/kg/injection, schedule: Q01DX001 (ip), vehicle: saline

Measured: T/C

NC(CC(=O)O)C(=O)NCC(=O)O (centres undefined) (H-[ξD]-Gly-OH)
inactive: dose: 12.5 mg/kg/injection, schedule: Q04DX002 (ip), vehicle: Klucel (hydroxypropylcellulose) (HPC) 98 % of control | dose: 25.0 mg/kg/injection, schedule: Q04DX002 (ip), vehicle: Klucel (hydroxypropylcellulose) (HPC) 94 % of control | dose: 50.0 mg/kg/injection, schedule: Q04DX002 (ip), vehicle: Klucel (hydroxypropylcellulose) (HPC) 94 % of control | [1] 117 % of control

CCOc1ccccc1C1N(C)CCCN1C
inactive: dose: 6.25 mg/kg/injection, schedule: Q04DX003 (ip), vehicle: saline with Tween-80 99 % of control | dose: 12.5 mg/kg/injection, schedule: Q04DX003 (ip), vehicle: saline with Tween-80 100 % of control | dose: 25.0 mg/kg/injection, schedule: Q04DX003 (ip), vehicle: saline with Tween-80 99 % of control

CCOC(=O)C1C(=O)CC(=O)C(C(=O)OCC)C1c1cc(OC)c(OC)c(OC)c1 (centres undefined)
inactive: [1] 91 % of control | [2] 91 % of control | [3] 94 % of control

CCOC(=O)CCCN(c1ccc(OC)c(OC)c1)S(=O)(=O)c1ccc(C)cc1
inactive: dose: 100.0 mg/kg/injection, schedule: Q01DX001 (ip), vehicle: carboxymethylcellulose (CMC) 97 % of control | dose: 200.0 mg/kg/injection, schedule: Q01DX001 (ip), vehicle: carboxymethylcellulose (CMC) 105 % of control | [4] 94 % of control

CC1(C)C2CC3C(C(=O)O)CCCC3(C2)C1Br (centres undefined)
inactive: dose: 100.0 mg/kg/injection, schedule: Q01DX009 (ip), vehicle: Klucel (hydroxypropylcellulose) (HPC) 103 % of control | [5] 87 % of control | dose: 200.0 mg/kg/injection, schedule: Q01DX009 (ip), vehicle: Klucel (hydroxypropylcellulose) (HPC) 106 % of control | [6] 90 % of control | dose: 400.0 mg/kg/injection, schedule: Q01DX009 (ip), vehicle: Klucel (hydroxypropylcellulose) (HPC) 97 % of control | dose: 400.0 mg/kg/injection, schedule: Q04DX003 (ip), vehicle: Klucel (hydroxypropylcellulose) (HPC) 89 % of control

O=C(Nc1cc([N+](=O)[O-])ccc1F)Oc1ccc(OCc2ccccc2)cc1
inactive: [1] 103 % of control | [2] 89 % of control | [3] 106 % of control

C=CCNC(=O)N(CC)C(=NCC)c1ccc(NC(=O)c2ccc(C(=O)Nc3ccc(C(=NCC)N(CC)C(=O)NCC=C)cc3)cc2)cc1
inactive: dose: 3.87 mg/kg/injection, schedule: Q01DX015 (ip), vehicle: methylcellulose (MC) 104 % of control

O=CN(O)CC(=O)O
inactive: dose: 62.5 mg/kg/injection, schedule: Q01DX010 (ip), vehicle: saline 95 % of control and 98 % of control | dose: 62.5 mg/kg/injection, schedule: Q01DX Z (ip), vehicle: saline 93 % of control | dose: 125.0 mg/kg/injection, schedule: Q01DX010 (ip), vehicle: saline 95 % of control | dose: 125.0 mg/kg/injection, schedule: Q01DX Z (ip), vehicle: saline 98 % of control | dose: 250.0 mg/kg/injection, schedule: Q01DX010 (ip), vehicle: saline 98 % of control and 106 % of control | dose: 250.0 mg/kg/injection, schedule: Q01DX Z (ip), vehicle: saline 92 % of control | dose: 500.0 mg/kg/injection, schedule: Q01DX010 (ip), vehicle: saline 96 % of control and 101 % of control | dose: 500.0 mg/kg/injection, schedule: Q01DX Z (ip), vehicle: saline 88 % of control | dose: 575.0 mg/kg/injection, schedule: Q02DX010 (ip), vehicle: other 101 % of control | dose: 860.0 mg/kg/injection, schedule: Q02DX010 (ip), vehicle: other 107 % of control | dose: 1300.0 mg/kg/injection, schedule: Q02DX010 (ip), vehicle: other 105 % of control | dose: 2000.0 mg/kg/injection, schedule: Q02DX010 (ip), vehicle: other 106 % of control | dose: 3000.0 mg/kg/injection, schedule: Q02DX010 (ip), vehicle: other 117 % of control

O=C(CNC(=O)Nc1cccc(Cl)c1Cl)N/N=C/c1ccccc1O
inactive: [7] 104 % of control | [8] 101 % of control | dose: 200.0 mg/kg/injection, schedule: Q01DX009 (ip), vehicle: saline with Tween-80 96 % of control

c1ccc2c(c1)ccc1oc3ccccc3c12
inactive: [9] 101 % of control | [10] 95 % of control | [11] 98 % of control

COC(=O)c1[nH]ncc1N=NN(C)C
inactive: dose: 176.0 mg/kg/injection, schedule: Q01DX001 (ip), vehicle: carboxymethylcellulose (CMC) 111 % of control | dose: 264.0 mg/kg/injection, schedule: Q01DX001 (ip), vehicle: carboxymethylcellulose (CMC) 120 % of control | [4] 113 % of control

CN=C(N)c1ccc(N=C(N)c2ccc(Cl)c(C(N)=Nc3ccc(C(N)=NC)cc3)c2)cc1
inactive: dose: 10.0 mg/kg/injection, schedule: Q01DX Z (ip), vehicle: water 96 % of control | dose: 20.0 mg/kg/injection, schedule: Q01DX Z (ip), vehicle: water 113 % of control

O=S1OCCS1 (centres undefined)
inactive: dose: 13.0 mg/kg/injection, schedule: Q01DX Z (sc), vehicle: saline 100 % of control | dose: 36.0 mg/kg/injection, schedule: Q01DX Z (sc), vehicle: saline 100 % of control

CCOC(=O)C1(C(=O)OCC)CCC2Nc3ccccc3C(=O)N21 (centres undefined)
inactive: dose: 50.0 mg/kg/injection, schedule: Q04DX003 (ip), vehicle: Klucel (hydroxypropylcellulose) (HPC) 99 % of control | [5] 101 % of control | [6] 87 % of control

CC(C)(C)C(C)(C)O
inactive: dose: 75.0 mg/kg/injection, schedule: Q01DX001 (ip), vehicle: saline with Tween-80 100 % of control | dose: 150.0 mg/kg/injection, schedule: Q01DX001 (ip), vehicle: saline with Tween-80 97 % of control | dose: 300.0 mg/kg/injection, schedule: Q01DX001 (ip), vehicle: saline with Tween-80 92 % of control

Nc1ncnc2c1CP(=O)(c1ccccc1)CC2 (centres undefined)
inactive: dose: 100.0 mg/kg/injection, schedule: Q04DX002 (ip), vehicle: saline with Tween-80 103 % of control | dose: 200.0 mg/kg/injection, schedule: Q04DX002 (ip), vehicle: saline with Tween-80 103 % of control | dose: 400.0 mg/kg/injection, schedule: Q04DX002 (ip), vehicle: saline with Tween-80 103 % of control

C[n+]1cccc(C(=O)N/N=C/C=C/c2ccccc2)c1
inactive: [7] 96 % of control | [8] 100 % of control

CO/N=C1\C(C)(C)C(C)(C)C(C)(C)C1(C)SS(=O)(=O)O (centres undefined)
inactive: dose: 100.0 mg/kg/injection, schedule: Q04DX002 (ip), vehicle: saline 90 % of control | dose: 200.0 mg/kg/injection, schedule: Q04DX002 (ip), vehicle: saline 101 % of control | dose: 400.0 mg/kg/injection, schedule: Q04DX002 (ip), vehicle: saline 107 % of control

O=N/N=c1/sc2ccccc2n1-c1ccccc1
inactive: dose: 100.0 mg/kg/injection, schedule: Q01DX001 (ip), vehicle: Klucel (hydroxypropylcellulose) (HPC) 103 % of control | dose: 200.0 mg/kg/injection, schedule: Q01DX001 (ip), vehicle: Klucel (hydroxypropylcellulose) (HPC) 94 % of control | dose: 400.0 mg/kg/injection, schedule: Q01DX001 (ip), vehicle: Klucel (hydroxypropylcellulose) (HPC) 100 % of control

O=C(CCCC(=O)N/N=C/c1ccc(-c2ccccc2)cc1)N/N=C\c1ccc(-c2ccccc2)cc1
inactive: [12] 96 % of control | [9] 98 % of control | [10] 96 % of control | [11] 96 % of control

O=CNc1ncn[nH]1
inactive: [12] 98 % of control | [9] 98 % of control | [10] 104 % of control | [11] 104 % of control

Reference: PubChem BioAssay AID248 (DTP/NCI, 2004)
